The source of these data is patent US20130005718A1 (priority 2009, published 2013).

Several values for one entry are separate records, joined by “and”; a condition that tells them apart may be missing. Equal entries are not always repeated. Entries after “also recorded” stand apart in the source; their conditions may differ.

For series [1] the following is noted: equivalent ionic conditions; cited from earlier work.
For series [2] the following is noted: variously reported; cited from earlier work.
The format of series [3] is in vivo, mice. The method, then: Samples and standards were prepared as follows.
For the standard calibration curve, aliquots of 2,6-DTBP acutely solubilized in DMSO were added to 200 μl of chloroform plus the thymol internal standard (total DMSO addition was 2 μl in all cases). 200 μl of H2O were then added and the samples were processed as described above. In all cases, 2 μl of the chloroform phase was injected for analysis.
(§1) To examine 2,6-DTBP bioavailability, 32 mice received dihydroxy-β-cyclodextrin (DHβCD) solubilized 2,6-DTBP (see below), DHβCD alone or saline by intraperitoneal (i.p.) injection with a dosing schedule as per behavioral testing (see below). 10-60 minutes after receipt of the appropriate final dose, mice were anesthetized with 2.5-3% isoflurane then exsanguinated by venous puncture. Blood concentration of 2,6-DTBP was determined by gas chromatography (see below). To consider toxicity of a high acute therapeutic dose of 2,6-DTBP, some animals received a single bolus of 80 mg/kg. To consider toxicity of an acute hyper-therapeutic dose of 2,6-DTBP, all animals that received three 40 mg/kg therapeutic doses during animal behavior experiments received a 120 mg/kg bolus immediately after the 180 minutes of behavioral testing window, thereby raising the cumulative dose to 240 mg/kg. The general condition of all of these animals was followed by qualitative observation of behavior (grooming and exploration) and survival. All animals were sacrificed within 7 days after receipt of a 2,6-DTBP/DHβCD injection.

The subject of series [4] is mice. As to the kind of experiment: Acute toxicity of 2,6-DTBP (behavior and survival). In kind it is in vivo. How it is done: as §1
The subject of series [5] is PNL-induced mechanical allodynia and hyperalgesia. As to the kind of experiment: Von Frey fiber test after partial sciatic nerve ligation (PNL). In kind it is in vivo, C57 Black/6J mice.
Series [6] has as its system mice. As to conditions: i.v. 80-100 mg/kg; cited from earlier work.
For series [7] the following is noted: in vivo; cited from earlier work.
In another series the target is T1, HCN1 channels (Mus musculus, UniProt O88704).
T1 construct: expressed in transfected cells; host or cells: Xenopus oocytes (cRNA injection)
As to the kind of experiment: Two-electrode voltage clamp (TEVC) of HCN1 channel gating in Xenopus oocytes. It counts as cell-based, murine. Particulars: for HCN isoform preference (words): HCN1 versus HCN2, 3 or 4.

How the values of series [8] were obtained: Serial dilutions were then dispersed into the aqueous recording solutions maintaining the DMSO concentration at 0.04% (W/V). […] To this end, appropriate masses of 2,6-DTBP and DHβCD that would yield 6 ml of 1% 2,6-DTBP, in combination with 40% DHβCD, were combined in a Teflon® capped borosilicate vial and heated to 60° C. in a water bath. This temperature is above the melting point of 2,6-DTBP (36° C. (Lorenc et al., 2003) but below that of DHβCD (>200° C. (Loftsson et al., 1996) and is compatible with stability of both reagents (Lorenc et al., 2003; Loftsson et al., 1996 and CAS documentation). After 15 minutes, the molten 2,6-DTBP was intimately mixed with the DHβCD by vigorous vortexing, 200 μl of 60° C. DI H2O added and, following additional vortexing, the vial returned to the water bath for 15-30 minutes. Following addition of 3 more 200 μl aliquots of deionized water (DI H2O), with corresponding incubation and vortexing, the sample was left at 60° C. overnight. The resulting colorless viscous gel was slowly diluted by addition of the required volume of DI H2O adding no more than 200 μl at a time with 15-30 minutes incubation at 60° C. and vortexing after each addition.
The injection port and FID were at 280° C. while the column temperature was 210° C. The split ratio was 2:1 while the column flow was 6.96 ml/min with helium (linear velocity 65 cm/s).
Samples and standards were prepared as follows. To 200 μl of whole blood (drawn following injection of DHβCD or 2,6-DTBP solubilized in DHβCD), 200 μl of chloroform containing 100 nM thymol (Sigma) as internal standard and 2 μl of DMSO were added. Following mixing (vortex for 20 seconds followed by 30 minutes on a rotator) and subsequent centrifugation (5000×g for 10 minutes at 10° C.), the chloroform phase was transferred into a glass gas chromatography vial and washed with an equal volume of 0.5 M NaOH. […] DHβCD was added to the DMSO-solubilized 2,6-DTBP sample and DMSO was added to the DHβCD-solubilized 2,6-DTBP sample so that the final concentrations of DHβCD and DMSO were equivalent. […]

Series [9] has as its system PNL-induced thermal hyperalgesia. As to the kind of experiment: Hind paw withdrawal latency (HPWL) to heat source after PNL. As to conditions: i.p., 15% heat stimulus. It counts as in vivo, C57 Black/6J mice.
Where [10] appears, read: listed as 2,6-di-tert-butylphenol.

T1 sequence (O88704 whole entry): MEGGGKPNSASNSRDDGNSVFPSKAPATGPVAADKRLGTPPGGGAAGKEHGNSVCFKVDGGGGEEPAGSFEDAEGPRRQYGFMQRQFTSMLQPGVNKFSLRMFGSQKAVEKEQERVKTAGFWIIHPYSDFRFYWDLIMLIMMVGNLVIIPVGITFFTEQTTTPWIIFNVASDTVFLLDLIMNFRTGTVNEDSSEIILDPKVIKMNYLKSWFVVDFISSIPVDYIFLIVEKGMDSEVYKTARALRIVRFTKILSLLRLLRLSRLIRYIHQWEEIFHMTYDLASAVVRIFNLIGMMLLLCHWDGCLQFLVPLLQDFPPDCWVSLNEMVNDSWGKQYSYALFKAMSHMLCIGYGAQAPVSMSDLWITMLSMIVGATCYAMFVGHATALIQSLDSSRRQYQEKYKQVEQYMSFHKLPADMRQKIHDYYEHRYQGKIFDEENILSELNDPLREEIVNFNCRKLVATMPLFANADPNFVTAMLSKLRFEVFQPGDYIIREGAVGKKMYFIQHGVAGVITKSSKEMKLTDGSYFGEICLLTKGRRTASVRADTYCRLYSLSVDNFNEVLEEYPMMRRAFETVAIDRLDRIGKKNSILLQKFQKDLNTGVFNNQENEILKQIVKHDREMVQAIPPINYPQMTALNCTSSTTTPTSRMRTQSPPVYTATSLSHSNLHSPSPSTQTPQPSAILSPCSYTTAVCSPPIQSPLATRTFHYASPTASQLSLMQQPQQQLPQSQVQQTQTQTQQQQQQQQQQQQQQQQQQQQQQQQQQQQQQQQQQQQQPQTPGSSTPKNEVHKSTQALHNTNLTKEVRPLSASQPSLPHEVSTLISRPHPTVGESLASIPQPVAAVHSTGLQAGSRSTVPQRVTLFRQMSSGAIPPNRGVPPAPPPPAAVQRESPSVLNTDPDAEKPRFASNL

Regarding `CCCCC/C=C\C/C=C\C/C=C\C/C=C\CCCC(=O)O` [arachidonic acid], in series [1], the critical micelle concentration result is listed as “about 100 μM”.

As for `CC(C)(C)c1cccc(C(C)(C)C)c1O` [2,6-DTBP, 2,6-di-tert-butylphenol], the aqueous solubility limit in [2] is 20 to 200 µM. The “whole blood concentration indicated from the chromatogram shown” value in series [3] (80 mg/kg i.p. in DHβCD) worked out at 3.6 µM. Further, in [3] (80 mg/kg i.p. in DHβCD, n=6), the “total concentration in whole blood (mean)” value came to 10.6 µM. The “estimated free serum concentration” value in series [3] (analgesic dose of 40-120 mg/kg i.p.) was 0.2 to 0.6 µM. Also, the expected free concentration in series [3] (from total blood concentration after 80 mg/kg i.p.) lay within 0.1 to 0.5 µM. The “tolerability of single bolus dose” value in the series with mice [4] (80 mg/kg i.p., four mice, seven day observation) is reported as “all mice tolerated this dose well”. Further, the “tolerability of final bolus” value with mice [4] (120 mg/kg bolus after three 40 mg/kg doses, cumulative 240 mg/kg i.p.) is reported as “not well tolerated”. Moreover, the LD75 with mice [4] (acute i.p. dose) is ~240 mg/kg. Also, the “window in which remaining animals died” value in the series with mice [4] (cumulative 240 mg/kg i.p.) lay in the range of 14 to 18 h. In the series on mice [4] (i.p.), this molecule came in with a therapeutic index of 3 to 5. In addition, the “mechanical hyperalgesia/allodynia in ipsilateral paw” value in series [5] (i.p. cumulative dosing, post-PNL mice) was “ameliorates the behavioral consequences of PNL-induced hyperalgesia; also recorded: selectively suppresses PNL-induced mechanical allodynia and hyperalgesia”. Further, the “mechanical threshold, Logit transformation (allodynia, words)” value in [5] (threshold set at PW of 0.1) is “restore selectively the mechanical threshold to that observed in the uninjured paw”. In addition, the “tolerability of acute intravenous exposure” value in the series on mice [6] is “well tolerated”. In [7], the “anesthetic activity” value is reported as “total absence of anesthetic efficacy”. For the same molecule, on HCN1 channels, the “HCN1 antagonism” value is “strongest potency and highest efficacy of the four derivatives”; the “HCN isoform preference (words)” value is recorded as “retains this selectivity profile; also recorded: retains a propofol-like selective efficacy against HCN1 channels”. Besides, at HCN1 channels (10 μM, n=6), the “mean V1/2 of HCN1 activation” value is given as −88.3 mV and the “mean slope of HCN1 activation” value was 9.6 mV. Also, on HCN1 channels (10 μM, single cell), the “V1/2 of HCN1 activation (Boltzmann fit, cell shown in FIG. 3A)” value is listed as −90.8 mV and the “slope of HCN1 activation (Boltzmann fit, cell shown in FIG. 3A)” value is reported as 9.7 mV. In addition, the “post incubation maximal current relative to pre incubation current” value on HCN1 channels (20 μM, n=6, difference to control not significant) came to 108%. Also, the “HCN1 ΔV1/2 after 20-minute incubation” value at HCN1 channels (20 μM, solubilized in DHβCD, n=6) was −27.7 mV. Moreover, on HCN1 channels (20 μM, solubilized in DMSO, n=6), the “HCN1 ΔV1/2 after 20-minute incubation” value is −31.9 mV. Besides, at HCN1 channels (20 min incubation, Xenopus oocytes, TEVC, read-out: EC50 for hyperpolarization of V1/2 of HCN1 gating (Hill fit)), the EC50 is 2.3 µM and ~2.3 µM. In addition, on HCN1 channels (setting [10]), the “HCN isoform preference (words)” value is “preferentially inhibit HCN1 with little efficacy against HCN2, 3 or 4 channels”. Also, on HCN1 channels (Hill fit of dose-response), the “apparent stoichiometry h (Hill coefficient)” value is 1.4 and the “maximal efficacy ΔV1/2 of HCN1 gating” value was −32 mV. Moreover, in series [8], the “concentration solubilized in carrier solution” value was 1 % (W/V), the “solubilization in intralipid emulsion” value is recorded as “unsuccessful” and the “storage stability of the solution” value is “no phase separation or derivative precipitation”. In addition, in series [9], the “thermal hyperalgesia, ipsilateral HPWL (words)” value is “ameliorates the behavioral consequences of PNL-induced hyperalgesia; also recorded: selectively ameliorates PNL-induced thermal hyperalgesia” and the “thermal nociception, contralateral HPWL” value is “without significantly altering nociceptive behavior”. In series [9] (setting [10]), the “thermal hyperalgesia, ipsilateral HPWL (words)” value was “significantly relieve the neuropathic behavior”.
